# Results: patent US9029544B2, “Tricyclic pyridine derivatives, medicaments containing such compounds, their use and process for their preparation” (Boehringer Ingelheim International GmbH, priority 2010, dated 2015)
# Biological target: T1, Recombinant human CETP (Homo sapiens, UniProt P11597)
# T1 construct: made in house; host or cells: CHO cells (secreted into conditioned medium)
# T1 sequence (P11597 18-493): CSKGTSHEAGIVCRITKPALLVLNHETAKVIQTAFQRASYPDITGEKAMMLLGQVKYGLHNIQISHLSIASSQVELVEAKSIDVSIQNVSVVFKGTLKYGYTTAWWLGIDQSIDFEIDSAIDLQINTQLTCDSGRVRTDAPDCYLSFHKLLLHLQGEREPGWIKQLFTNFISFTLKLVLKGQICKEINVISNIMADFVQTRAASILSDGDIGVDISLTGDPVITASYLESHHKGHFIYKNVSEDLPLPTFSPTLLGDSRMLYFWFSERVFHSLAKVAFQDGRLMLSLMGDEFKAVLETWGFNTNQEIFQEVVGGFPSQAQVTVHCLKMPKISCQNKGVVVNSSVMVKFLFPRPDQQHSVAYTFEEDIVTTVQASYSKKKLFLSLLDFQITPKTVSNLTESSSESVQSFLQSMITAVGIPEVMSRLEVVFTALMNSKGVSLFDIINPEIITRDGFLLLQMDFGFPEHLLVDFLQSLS
# Assay: CETP in vitro assay (fluorometric assay, Roar Biomedical; cholesterol ester transfer from HDL to LDL)
# Type: biochemical
# Settings: recombinant human CETP from CHO cells; 3 hours at 37° C.; fluorescence 485/535 nm; compound concentrations between 1 nM and 30 μM; read-out: IC50 values for inhibition of CETP
# Procedure: CETP inhibitory activity of compounds of the present invention can be determined in a fluorometric assay purchased from Roar Biomedical, Inc. (New York, N.Y., USA). […] Recombinant human CETP was partially purified from medium conditioned by CETP expressing CHO cells. In a 384 well format 2.5 μl of compound solution in DMSO was combined with 2 μl of donor solution, 2 μl of acceptor solution and 0.8 μl of recombinant human CETP solution in a total volume of 100 μl with assay buffer and incubated for 3 hours at 37° C. The fluorescence intensity was measured at excitation wavelength of 485 nm and emission wavelength of 535 nm. IC50 values are calculated from dose effect curves from compound concentrations between 1 nM and 30 μM.
row,Structure (SMILES),IC50 [nM]
1,"CC(=O)O[C@H]1c2nc(C(C)C)c3c(c2[C@@H](O)CC1(C)C)C1(CCCC1)O[C@@H]3c1ccc(C(F)(F)F)nc1 [1(46), (3′R,6′R,9′S)-9′-hydroxy-4′-isopropyl-7′,7′-dimethyl-3′-(6-(trifluoromethyl)pyridin-3-yl)-6′,7′,8′,9′-tetrahydro-3′H-spiro[cyclopentane-1,1′-furo[3,4-c]quinoline]-6′-yl acetate]",1830
2,"CC(C)c1nc2c(c3c1[C@@H](c1ccc(C(F)(F)F)cc1F)OC31CCOCC1)[C@@H](O)CC1(CCC1)C2 [1(51), (3S,9S)-3-(2-fluoro-4-(trifluoromethyl)phenyl)-4-isopropyl-7,7-(propan-1,3-diyl)-2′,3′,5′,6,6′,7,8,9-octahydro-3H-spiro[furo[3,4-c]quinoline-1,4′-pyran]-9-ol]",13
3,"CC(C)c1nc2c(c3c1[C@@H](c1ccc(C(C)(C)C)cc1)OC31CCOCC1)[C@@H](O)CC1(CCC1)C2 [1(63), (3R,9S)-3-(4-tert-butylphenyl)-4-isopropyl-7,7-(propan-1,3-diyl)-2′,3′,5′,6,6′,7,8,9-octahydro-3H-spiro[furo[3,4-c]quinoline-1,4′-pyran]-9-ol]",6
4,"CC(C)c1nc2c(c3c1[C@@H](c1ccc(C(F)(F)F)nc1)OC31CCOCC1)[C@@H](O)CC(C)(C)C2 [1(47), (3R,9S)-4-isopropyl-7,7-dimethyl-3-(6-(trifluoromethyl)pyridin-3-yl)-2′,3′,5′,6,6′,7,8,9-octahydro-3H-spiro[furo[3,4-c]quinoline-1,4′-pyran]-9-ol]",136
5,"CC(C)c1nc2c(c3c1[C@@H](c1ccc(C(F)(F)F)cn1)OC31CCOCC1)[C@@H](O)CC(C)(C)C2 [1(67), (3S,9S)-4-isopropyl-7,7-dimethyl-3-(5-(trifluoromethyl)pyridin-2-yl)-2′,3′,5′,6,6′,7,8,9-octahydro-3H-spiro[furo[3,4-c]quinoline-1,4′-pyran]-9-ol]",161
6,"CC(C)c1nc2c(c3c1[C@@H](c1ccc(C(F)(F)C(F)(F)F)cc1)OC31CCCC1)[C@@H](O)CC(C)(C)C2 [1(65), (3′R,9′S)-4′-isopropyl-7′,7′-dimethyl-3′-(4-(perfluoroethyl)phenyl)-6′,7′,8′,9′-tetrahydro-3′H-spiro[cyclopentane-1,1′-furo[3,4-c]quinolin]-9′-ol]",83
7,"CC(C)c1nc2c(c3c1[C@@H](c1ccc(C(F)(F)F)c(C#N)c1)OC31CCOCC1)[C@@H](O)CC1(CCC1)C2 [1(79), 5-((3R,9S)-9-hydroxy-4-isopropyl-7,7-(propan-1,3-diyl)-2′,3′,5′,6,6′,7,8,9-octahydro-3H-spiro[furo[3,4-c]quinoline-1,4′-pyran]-3-yl)-2-(trifluoromethyl)benzonitrile]",18
8,"CC(C)c1nc2c(c3c1[C@@H](c1ccc(OC(C)(C)C)cc1)OC31CCOCC1)[C@@H](O)CC(C)(C)C2 [1(58), (3R,9S)-3-(4-tert-butoxyphenyl)-4-isopropyl-7,7-dimethyl-2′,3′,5′,6,6′,7,8,9-octahydro-3H-spiro[furo[3,4-c]quinoline-1,4′-pyran]-9-ol]",88
9,"CC(C)c1nc2c(c3c1[C@@H](c1ccc(S(F)(F)(F)(F)F)cc1)OC31CCCC1)[C@@H](O)CC(C)(C)C2 [1(71), (3′R,9′S)-4′-isopropyl-7′,7′-dimethyl-3′-(4-(pentafluorosulfanyl)phenyl)-6′,7′,8′,9′-tetrahydro-3′H-spiro[cyclopentane-1,1′-furo[3,4-c]quinolin]-9′-ol]",31
10,"CC1(C)Cc2nc(C3CCOCC3)c3c(c2[C@@H](O)C1)C1(CCOCC1)O[C@@H]3c1ccc(C(C)(C)C)cc1 [1(70), (3R,9S)-3-(4-tert-butylphenyl)-7,7-dimethyl-4-(tetrahydro-2H-pyran-4-yl)-2′,3′,5′,6,6′,7,8,9-octahydro-3H-spiro[furo[3,4-c]quinoline-1,4′-pyran]-9-ol]",57
11,"CC(=O)O[C@H]1c2nc(C(C)C)c3c(c2[C@@H](O)CC1(C)C)C1(CCOCC1)O[C@@H]3c1ccc(C(F)(F)F)cc1 [1(48), (3R,6R,9S)-9-hydroxy-4-isopropyl-7,7-dimethyl-3-(4-(trifluoromethyl)phenyl)-2′,3′,5′,6,6′,7,8,9-octahydro-3H-spiro[furo[3,4-c]quinoline-1,4′-pyran]-6-yl acetate]",142
12,"CC1(C)Cc2nc(C3CCOCC3)c3c(c2[C@@H](O)C1)C1(CCOCC1)O[C@@H]3c1ccc(C(F)(F)F)cn1 [1(73), (3S,9S)-7,7-dimethyl-4-(tetrahydro-2H-pyran-4-yl)-3-(5-(trifluoromethyl)pyridin-2-yl)-2′,3′,5′,6,6′,7,8,9-octahydro-3H-spiro[furo[3,4-c]quinoline-1,4′-pyran]-9-ol]",1700

# The next lines start with the values.
row,IC50 [nM],Structure (SMILES)
1,1540,"CC1(C)C[C@H](O)c2c(nc(C3CCOCC3)c3c2C2(CCOCC2)O[C@@H]3c2ccc(C(F)(F)F)nc2)[C@@H]1O [6(2), (3R,6R,9S)-7,7-dimethyl-4-(tetrahydro-2H-pyran-4-yl)-3-(6-(trifluoromethyl)pyridin-3-yl)-2′,3′,5′,6,6′,7,8,9-octahydro-3H-spiro[furo[3,4-c]quinoline-1,4′-pyran]-6,9-diol]"
2,15,"CC(C)c1nc2c(c3c1[C@@H](c1ccc(C(F)(F)F)c(C#N)c1)OC31CCOCC1)[C@@H](O)CC1(CCC1)[C@H]2O [4(10), 5-((3R,6R,9S)-6,9-dihydroxy-4-isopropyl-7,7-(propan-1,3-diyl)-2′,3′,5′,6,6′,7,8,9-octahydro-3H-spiro[furo[3,4-c]quinoline-1,4′-pyran]-3-yl)-2-(trifluoromethyl)benzonitrile]"
3,108,"COC(C)c1nc2c(c3c1[C@@H](c1ccc(C(F)(F)F)cc1)OC31CCOCC1)[C@@H](O)CC(C)(C)C2 (stereo partly drawn) [1(81), (3R,9S)-4-(1-methoxyethyl)-7,7-dimethyl-3-(4-(trifluoromethyl)phenyl)-2′,3′,5′,6,6′,7,8,9-octahydro-3H-spiro[furo[3,4-c]quinoline-1,4′-pyran]-9-ol]"
4,15,"CC(C)c1nc2c(c3c1[C@@H](c1ccc(C(F)(F)F)cc1F)OC31CCOCC1)[C@@H](O)CC(C)(C)[C@H]2O [4(5), (3S,6R,9S)-3-(2-fluoro-4-(trifluoromethyl)phenyl)-4-isopropyl-7,7-dimethyl-2′,3′,5′,6,6′,7,8,9-octahydro-3H-spiro[furo[3,4-c]quinoline-1,4′-pyran]-6,9-diol]"
5,12,"CC(C)c1nc2c(c3c1[C@@H](c1ccc(S(F)(F)(F)(F)F)cc1)OC31CCOCC1)[C@@H](O)CC(C)(C)[C@H]2O [4(7), (3R,6R,9S)-4-isopropyl-7,7-dimethyl-3-(4-(pentafluorosulfanyl)phenyl)-2′,3′,5′,6,6′,7,8,9-octahydro-3H-spiro[furo[3,4-c]quinoline-1,4′-pyran]-6,9-diol]"
6,127,"CC(C)c1nc2c(c3c1[C@@H](c1ccc(C(F)(F)F)nc1)OC31CCCC1)[C@@H](O)CC(C)(C)[C@H]2O [4(1), (3′R,6′R,9′S)-4′-isopropyl-7′,7′-dimethyl-3′-(6-(trifluoromethyl)pyridin-3-yl)-6′,7′,8′,9′-tetrahydro-3′H-spiro[cyclopentane-1,1′-furo[3,4-c]quinoline]-6′,9′-diol]"
7,51,"CC(C)(C)c1ccc([C@H]2OC3(CCOCC3)c3c2c(C2CCOCC2)nc2c3[C@@H](O)CC(C)(C)[C@H]2O)cc1 [4(13), (3R,6R,9S)-3-(4-tert-butylphenyl)-7,7-dimethyl-4-(tetrahydro-2H-pyran-4-yl)-2′,3′,5′,6,6′,7,8,9-octahydro-3H-spiro[furo[3,4-c]quinoline-1,4′-pyran]-6,9-diol]"
8,410,"CC(C)c1nc2c(c3c1[C@@H](c1ccc(C(F)(F)F)cc1F)OC31CCOCC1)[C@@H](O)CC(C)(C)[C@@H]2O [Example 6, (3S,6S,9S)-3-(2-fluoro-4-(trifluoromethyl)phenyl)-4-isopropyl-7,7-dimethyl-2′,3′,5′,6,6′,7,8,9-octahydro-3H-spiro[furo[3,4-c]quinoline-1,4′-pyran]-6,9-diol]"
9,183,"CC(C)c1nc2c(c3c1[C@@H](c1ccc(C(F)(F)F)cn1)OC31CCOCC1)[C@@H](O)CC(C)(C)[C@H]2O [5(4), (3S,6R,9S)-4-isopropyl-7,7-dimethyl-3-(5-(trifluoromethyl)pyridin-2-yl)-2′,3′,5′,6,6′,7,8,9-octahydro-3H-spiro[furo[3,4-c]quinoline-1,4′-pyran]-6,9-diol]"
10,14,"CC(C)c1nc2c(c3c1[C@@H](c1ccc(S(F)(F)(F)(F)F)cc1)OC31CCOCC1)[C@@H](O)CC1(CCC1)[C@H]2O [4(8), (3R,6R,9S)-4-isopropyl-7,7-(propan-1,3-diyl)-3-(4-(pentafluorosulfanyl)phenyl)-2′,3′,5′,6,6′,7,8,9-octahydro-3H-spiro[furo[3,4-c]quinoline-1,4′-pyran]-6,9-diol]"
